Activity calls are given as the source filed them. The calls are words filed in the database; no cut-off is given here.
Tests used:
[1] = system: MGC-803; experiment: Induction of apoptosis in human MGC-803 cells assessed as late apoptotic cells at 2.5 uM measured after 48 hrs by AnnexinV/FITC staining based flow cytometry method (reference value: 0.9%); type: functional
[2] = system: HGC-27; experiment: Induction of apoptosis in human HGC-27 cells assessed as early apoptotic cells at 6 uM measured after 24 hrs by AnnexinV/FITC staining based flow cytometry method (reference value: 0.7%); type: functional
[3] = system: MGC-803; experiment: Induction of apoptosis in human MGC-803 cells assessed as down-regulation of Bcl2 at 2.5 to 7.5 uM measured after 24 hrs by Western blot assay; type: functional, cell-based; conditions: dose 2.5-7.5 µM
[4] = system: HGC-27; experiment: Induction of apoptosis in human HGC-27 cells assessed as early apoptotic cells at 3 uM measured after 24 hrs by AnnexinV/FITC staining based flow cytometry method (reference value: 0.7%); type: functional
[5] = system: MGC-803; experiment: Induction of apoptosis in human MGC-803 cells assessed as reduction of mitochondrial membrane potential at 2.5 uM measured after 24 hrs by JC-1 staining based Flowcytometry assay (reference value: 3.8%); type: functional; set-up: scale not given: the % may be the effect or the level left
[6] = system: HGC-27; experiment: Induction of apoptosis in human HGC-27 cells assessed as necrotic cells at 9 uM measured after 48 hrs by AnnexinV/FITC staining based flow cytometry method (reference value: 0.1%); type: functional
[7] = system: HGC-27; experiment: Antiproliferative activity against human HGC-27 cells assessed as cell survival at 7.5 uM preincubated with Z-VAD-FMK followed by compound addition and measured after 24 hrs by MTT assay; type: functional, cell-based
[8] = system: HGC-27; experiment: Induction of apoptosis in human HGC-27 cells assessed as viable cells at 6 uM measured after 24 hrs by AnnexinV/FITC staining based flow cytometry method (reference value: 95.7%); type: functional; conditions: read-out: Activity
[9] = system: HGC-27; experiment: Induction of apoptosis in human HGC-27 cells assessed as necrotic cells at 3 uM measured after 48 hrs by AnnexinV/FITC staining based flow cytometry method (reference value: 0.1%); type: functional
[10] = system: MGC-803; experiment: Antiproliferative activity against human MGC-803 cells assessed as inhibition of cell proliferation measured after 72 hrs by MTT assay; type: functional, cell-based; conditions: MGC-803, 72 h
[11] = target: T1, NEDD8-activating enzyme E1 regulatory subunit (Homo sapiens) (UniProt Q13564); experiment: Inhibition of NAE-mediated neddylation in human MGC-803 cells assessed as cullin3-Nedd8 adduct formation at 2.5 to 7.5 uM measured after 24 hrs by western blot assay; type: cell-based; conditions: dose 2.5-7.5 µM
T1 sequence (whole entry): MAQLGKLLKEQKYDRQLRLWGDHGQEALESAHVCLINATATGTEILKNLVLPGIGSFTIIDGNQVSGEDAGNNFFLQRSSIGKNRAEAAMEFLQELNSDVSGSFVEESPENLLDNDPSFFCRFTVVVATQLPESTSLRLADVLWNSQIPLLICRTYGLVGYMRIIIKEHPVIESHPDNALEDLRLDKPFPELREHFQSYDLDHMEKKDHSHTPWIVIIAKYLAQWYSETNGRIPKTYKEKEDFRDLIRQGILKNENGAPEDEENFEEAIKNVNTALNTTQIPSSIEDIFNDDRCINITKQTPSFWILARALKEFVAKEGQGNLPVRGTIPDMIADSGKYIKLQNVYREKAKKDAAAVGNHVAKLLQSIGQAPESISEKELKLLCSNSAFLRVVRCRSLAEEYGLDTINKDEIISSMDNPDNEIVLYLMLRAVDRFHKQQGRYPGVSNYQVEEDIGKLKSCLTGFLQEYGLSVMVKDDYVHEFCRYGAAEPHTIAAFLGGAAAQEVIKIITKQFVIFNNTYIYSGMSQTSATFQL

[12] = system: MGC-803; experiment: Induction of apoptosis in human MGC-803 cells assessed as late apoptotic cells at 7.5 uM measured after 24 hrs by AnnexinV/FITC staining based flow cytometry method (reference value: 2%); type: functional
[13] = system: MGC-803; experiment: Induction of apoptosis in human MGC-803 cells assessed as up-regulation of Nrf2 expression at 2.5 to 7.5 uM measured after 24 hrs by Western blot assay; type: functional, cell-based; conditions: dose 2.5-7.5 µM
[14] = system: HGC-27; experiment: Antiproliferative activity against human HGC-27 cells assessed as inhibition of cell proliferation measured after 72 hrs by MTT assay; type: functional, cell-based; conditions: HGC-27, 72 h
[15] = system: HGC-27; experiment: Induction of apoptosis in human HGC-27 cells assessed as viable cells at 9 uM measured after 24 hrs by AnnexinV/FITC staining based flow cytometry method (reference value: 95.7%); type: functional; conditions: read-out: Activity
[16] = system: HGC-27; experiment: Induction of apoptosis in human HGC-27 cells assessed as necrotic cells at 6 uM measured after 48 hrs by AnnexinV/FITC staining based flow cytometry method (reference value: 0.1%); type: functional
[17] = system: MGC-803; experiment: Induction of apoptosis in human MGC-803 cells assessed as up-regulation of Nrf2 expression in cytoplasm at 2.5 to 7.5 uM measured after 24 hrs by Western blot assay; type: functional, cell-based; conditions: dose 2.5-7.5 µM
[18] = system: HGC-27; experiment: Induction of apoptosis in human HGC-27 cells assessed as downregulation of Bcl-2 at 3 to 9 uM measured after 24 hrs by Western blot assay; type: functional, cell-based; conditions: dose 3-9 µM
[19] = target: T1, NEDD8-activating enzyme E1 regulatory subunit (Homo sapiens); experiment: Inhibition of NAE-mediated neddylation in human MGC-803 cells assessed as cullin4B-Nedd8 adduct formation at 2.5 to 7.5 uM measured after 24 hrs by western blot assay; type: cell-based; conditions: dose 2.5-7.5 µM
[20] = target: T1, NEDD8-activating enzyme E1 regulatory subunit (Homo sapiens); experiment: Inhibition of NAE-mediated neddylation in human MGC-803 cells assessed as cullin2-Nedd8 adduct formation at 2.5 to 7.5 uM measured after 24 hrs by western blot assay; type: cell-based; conditions: dose 2.5-7.5 µM
[21] = system: A549; experiment: Antiproliferative activity against human A549 cells assessed as inhibition of cell proliferation measured after 72 hrs by MTT assay; type: functional, cell-based; conditions: A549, 72 h
[22] = system: MGC-803; experiment: Induction of apoptosis in human MGC-803 cells assessed as late apoptotic cells at 2.5 uM measured after 24 hrs by AnnexinV/FITC staining based flow cytometry method (reference value: 2%); type: functional
[23] = Cytotoxicity against human GES1 cells assessed as inhibition of cell proliferation measured after 72 hrs by MTT assay; type: toxicity, cell-based
[24] = system: MGC-803; experiment: Induction of apoptosis in human MGC-803 cells assessed as late apoptotic cells at 5 uM measured after 24 hrs by AnnexinV/FITC staining based flow cytometry method (reference value: 2%); type: functional
[25] = system: HGC-27; experiment: Induction of apoptosis in human HGC-27 cells assessed as viable cells at 6 uM measured after 48 hrs by AnnexinV/FITC staining based flow cytometry method (reference value: 93.18%); type: functional; conditions: read-out: Activity
[26] = system: MGC-803; experiment: Cell cycle arrest in human MGC-803 cells assessed as accumulation of cells at G2/M phase at 5 uM measured after 24 hrs by Flowcytometry assay (reference value: 13.71%); type: functional
[27] = system: HGC-27; experiment: Induction of apoptosis in human HGC-27 cells assessed as late apoptotic cells at 3 uM measured after 48 hrs by AnnexinV/FITC staining based flow cytometry method (reference value: 1%); type: functional
[28] = system: MGC-803; experiment: Induction of apoptosis in human MGC-803 cells assessed as late apoptotic cells at 5 uM measured after 48 hrs by AnnexinV/FITC staining based flow cytometry method (reference value: 0.9%); type: functional
[29] = system: HGC-27; experiment: Induction of apoptosis in human HGC-27 cells assessed as reduction of mitochondrial membrane potential at 3 uM measured after 24 hrs by JC-1 staining based Flowcytometry assay (reference value: 2.4%); type: functional; set-up: scale not given: the % may be the effect or the level left

CCCCCc1ccc(NC(=O)C2CCN(C/C=C/c3ccccc3)CC2)cc1
Activity [1]: 43.5%
Activity [2]: 23.1%
Activity [3]: Dose-Dependent Effect
Activity [4]: 7.5%
Activity [5]: 4%
Activity [6]: 0%
Activity [7]: Active
viability at 6 µM [8]: 25.4%
Activity [9]: 2.4%
IC50 [10]: 2.55 µM
inhibition [11]: Active
Activity [12]: 82.4%
Activity [13]: Active
IC50 [14]: 3.17 µM
viability at 9 µM [15]: 20.9%
Activity [16]: 0.7%
Activity [17]: Active
Activity [18]: Dose-Dependent Effect
inhibition [19]: inactive
inhibition [20]: inactive
IC50 [21]: 3.88 µM
Activity [22]: 3.6%
IC50 at 72 h [23]: 8.7 µM
Activity [24]: 10.9%
viability at 6 µM [25]: 45.8%
Activity [26]: 19.31%
Activity [27]: 7%
Activity [28]: 51%
Activity [29]: 4.4%

From ChEMBL document CHEMBL5038615, “Discovery of a cinnamyl piperidine derivative as new neddylation inhibitor for gastric cancer treatment” (Eur J Med Chem, 2021)
